This note sets out measurements from patent EP4778933A1 (Chengdu Hyperway Pharmaceuticals Co., Ltd., priority 2023, dated 2025).

Read-outs that look alike come from different tables or passages of the source.

The test system of data set [1] is KRAS G12C-mediated ERK phosphorylation. Description: Inhibition of KRAS G12C-mediated ERK phosphorylation in NCI H358 cells. The data set is classed as cell-based. To be noted: Homo sapiens, 3 h incubation, read-out: Inhibitory activity on ERK phosphorylation (IC50) NCI H358-G12C. As for the experimental part: (§1) Day 1: AGS cells, SW480 cells, NCI H358 cells, HCT116 cells, and KP2 cells were seeded into 384-well cell culture plates and cultured overnight in a 37°C, 5% CO2 incubator.
(§2) Day 2: The compounds were added to the plates using Echo550 and incubated for 3 h in a 37°C, 5% CO2 incubator. Then, cells fixed with paraformaldehyde, permeated with methanol and blocked with a blocking solution were added. Finally, a mixed solution of primary antibodies (rabbit anti pERK, mouse anti GAPDH) was added, and the mixture was incubated overnight at 4°C.
(§3) Day 3: The mixed solution of primary antibodies was discarded, and a mixed solution of secondary antibodies (goat anti rabbit 800 CW, goat anti mouse 680 RD) was added. The resulting mixture was incubated at room temperature in the dark. Finally, the cell culture plate was washed with PBST, and then inverted for 1 minute of centrifugation. The fluorescence signal values were read with Odyssey CLx.
(§4) ERK phosphorylation was calculated according to the following formula: [formula] • Negative control: DMSO • Positive control: 10 µM Reference • IC50 value was fitted and calculated by XLFit 5.0 using the parametric formula. • Y = Bottom+(Top-Bottom)/(1+10^((LogIC50-X)*HillSlope)) • X: log value of compound concentration. • Y: average value of relative expression of p-ERK between replicate wells.

The subject of data set [2] is KRAS G12D-mediated ERK phosphorylation. Description: Inhibition of KRAS G12D-mediated ERK phosphorylation in AGS cells (in-cell pERK/GAPDH immunofluorescence). The data set is classed as cell-based. To be noted: AGS cells, 3 h incubation; read-out: Inhibitory activity on ERK phosphorylation (IC50) AGS-G12D. As for the experimental part:
as §1, §2, §3, §4

In data set [3] the test system is KRAS G12R-mediated ERK phosphorylation. Description: Inhibition of KRAS G12R-mediated ERK phosphorylation in KP2 cells. The data set is classed as cell-based. To be noted: 3 h incubation, read-out: Inhibitory activity on ERK phosphorylation (IC50) KP2-G12R. How it is done:
as §1, §2, §3, §4

Data set [4] has as its system KRAS G12V-mediated ERK phosphorylation. Description: Inhibition of KRAS G12V-mediated ERK phosphorylation in SW480 cells. The data set is classed as cell-based. To be noted: 3 h incubation, read-out: Inhibitory activity on ERK phosphorylation (IC50) SW480-G12V. How it is done: as §1, §2, §3, §4
The subject of data set [5] is KRAS G13D-mediated ERK phosphorylation. As to the kind of experiment: Inhibition of KRAS G13D-mediated ERK phosphorylation in HCT116 cells. The data set is classed as cell-based. Conditions: Homo sapiens, HCT-116, 3 h incubation, read-out: Inhibitory activity on ERK phosphorylation (IC50) HCT116-G13D. As for the experimental part: as §1, §2, §3, §4
Data set [6] is described as follows: In vivo pharmacokinetic test in mice. Conditions: female BALB/c mice, oral, single dose 30 mg/kg, plasma; 30 mg/kg. As for the experimental part: (§5) Each test compound was administered orally once to female BALB/c mice for pharmacokinetic study. The test compounds were prepared on the day of administration. The oral administration solvent: 50 mM sodium citrate (pH 5.0) + 10% captisol. The oral administration was conducted in a dose of 30 mg/kg. The animals were fasted for 10-14 h before oral administration, and the feeding was resumed 4 h after administration. Pharmacokinetic samples were collected through the orbit. The collection time points were: 15 min, 30 min, 1 h, 2 h, 4 h, 6 h, 8 h and 24 h after administration. Three whole blood samples were collected at each time point, with a collection volume of about 0.2 mL, and anticoagulated with sodium heparin. After blood samples were collected, they were immediately placed on ice and centrifuged within 1 h to isolate plasma (centrifugation conditions: 8000 rpm, 1 min, 2-8°C). The collected plasma was stored in a -20°C refrigerator before analysis. The concentrations of compounds in the plasma samples were determined using an LC-MS/MS analysis method.

The next data set has as its system RKN (KRAS G12V). Description: 3D cell proliferation inhibition test (CellTiter-Glo 3D, 7 days), RKN. Conditions: 168 h, read-out: Inhibitory activity on cell proliferation (IC50) RKN (KRAS G12V). The data set is classed as cell-based. How it is done: (§6) The diluted compounds to be tested were added to 384-well low-adhesion KRAS mutant types (such as GP2D, NCI H358, LoVo, RKN and KP2) of cell culture plates by using a nanoliter pipetting system (LABCYTE, P-0200). Then, the cells were plated and incubated in a 37°C, 5% CO2 incubator for 7 days. Afterward, CellTiter-Glo® 3D reagent was added, and the luminescent values were read by an Envision multifunctional microplate reader (the luminescent signal is proportional to the amount of ATP in the system, and the ATP content directly represents the number of viable cells in the system). Finally, the IC50 values (half-maximal inhibitory concentration) of the compounds were obtained by the XLFIT software using the nonlinear fitting formula.
(§7) • a) The diluted compounds to be tested were added to 384-well low-adhesion KRAS mutant types of cell culture plates by using a nanoliter pipetting system. • b) Cells were seeded into the 384-well plates in a) and then centrifuged at 1000 rpm for 1 min at room temperature, with a final DMSO concentration of compound being 0.5%. The plates were then incubated in a 5% CO2 constant-temperature incubator at 37°C for 7 days. • c) CellTiter-Glo® 3D was added to the 384-well cell culture plates in b), shaken in the dark, and incubated at room temperature. • d) The luminescence values were read by using an Envision multifunctional microplate reader.
(§8) The IC50 (half-maximal inhibitory concentration) values of the compounds were obtained by using XLFIT software according to the following nonlinear fitting formula: Y = Bottom + (Top−Bottom)/(1+10^(∧)((LogIC50−X)×HillSlope)) [formula] • X: log value of compound concentration. • Y: inhibition rate (%) [formula] • Negative control: DMSO. • Positive control: Medium only.

Data set [7] has as its system human ovarian cancer RKN mouse xenograft tumors. As to the kind of experiment: In vivo drug efficacy, RKN subcutaneous xenograft tumor model. Further details: species or system Balb/c nude mice. Conditions: 50 mg/kg, PO. How it is done: A subcutaneous xenograft tumor model of human ovarian cancer RKN (derived from uterine leiomyosarcoma) cells was established in Balb/c nude mice. RKN tumor cells resuspended in Ham's F12 medium were inoculated subcutaneously on the right side of the experimental animals at 5×10^6 + gel/0.1 mL. When the tumor grew to about 150-200 mm^3, 20 animals having relatively uniform tumor volumes were selected for group administration, with a total of 4 groups, 5 animals in each group. On the day of the experiment, the animals were given the corresponding drugs according to the groups. The first group G1 was set as a solvent group, and 50 mM citrate buffer (pH 5.0) + 10% Captisol was given by gavage alone. The second group G2 was given a 50 mM citrate buffer (pH 5.0) + 10% Captisol of compound 21. The third group G3 was given a 50 mM citrate buffer (pH 5.0) + 10% Captisol of compound 26. The fourth group G4 was given a 50mM citrate buffer (pH 5.0) + 10% Captisol of compound 31. Table 7: Study on effect of test substances on animal tumor size in the human ovarian cancer RKN mouse xenograft tumor model
During the experiment, the body weight and tumor size of the animals were measured twice a week, and the clinical symptoms of the animals were observed and recorded every day. Each drug administration was based on the most recent weighing of the animals.
The tumor was measured with a digital vernier caliper to measure the length (a) and width (b). The tumor volume (TV) was calculated using the following formula: TV = a × b^2 /2. [formula]

Data set [8] is described as follows: In vivo pharmacokinetic test in rats. Also on record: species or system SD Rats. Conditions: Sprague-Dawley (SD), rat; male rats, oral, single dose 30 mg/kg, plasma. As for the experimental part: as §5, with “once to male […] rats” for “once to female BALB/c mice”, “male BALB/c rats for pharmacokinetic” for “female BALB/c mice for pharmacokinetic”, “administration. The intravenous administration solvent: 5% DMSO + 10% solutol + 85% saline; and the oral administration” for “administration. The oral administration”, “points were: 5 min (intravenous administration), 15 min,” for “points were: 15 min,”, “analysis method. Table 4: Pharmacokinetic test results of some compounds in SD Rats” for “analysis method.”

The next data set concerns GP2D (KRASG12D). As to the kind of experiment: 3D cell proliferation inhibition test (CellTiter-Glo 3D, 7 days), GP2D. The data set is classed as cell-based. To be noted: 168 h, read-out: Inhibitory activity on cell proliferation (IC50) GP2D (KRASG12D). As for the experimental part:
as §6, §7, §8

A word on the AUC: it is the area under the concentration-time curve, a measure of exposure. A higher AUC goes with more exposure. What is called Cmax is the highest concentration seen after dosing. On to `CC1(O)COCCN(c2nc(OCC34CCCN3C(c3cc(F)c(F)c(F)c3)CC4)nc3c(F)c(-c4ccc(F)c5sc(N)c(C#N)c45)c(Cl)cc23)C1` (single isomer, unassigned) [Example 12, 2-amino-4-[6-chloro-8-fluoro-4-(6-hydroxy-6-methyl-1,4-oxazepan-4-yl)-2-({[3-(3,4,5-trifluorophenyl)-2,3,5,6,7,7a-hexahydro-1H-pyrrolizin-7a-yl]methyl}oxy)quinazolin-7-yl]-7-fluorobenzo[b]thiophene-3-carbonitrile], for which the IC50 in data set [1] is 3.1 nM; in [2] it was 3.3 nM; in data set [3], 148 nM; in data set [4], 2.4 nM; in [5], 63 nM. In [6], this compound returned an AUC of 37427 ng·h/mL. The same compound had a Cmax in [6] of 5544 ng/mL.

As for `CC1(O)COCCN(c2nc(OCC34CCCN3C(c3cc(F)c(F)c(F)c3)CC4)nc3c(F)c(-c4cccc5sc(N)c(C#N)c45)c(Cl)cc23)C1` (single isomer, unassigned) [Example 21, 2-amino-4-[6-chloro-8-fluoro-4-(6-hydroxy-6-methyl-1,4-oxazepan-4-yl)-2-({[3-(3,4,5-trifluorophenyl)-2,3,5,6,7,7a-hexahydro-1H-pyrrolizin-7a-yl]methyl}oxy)quinazolin-7-yl]benzo[b]thiophene-3-carbonitrile], the IC50 in data set [1] is 2.04 nM; in the data set with RKN (KRAS G12V), 7.23 nM; in [2], 4.7 nM; in [3], 146 nM; with GP2D (KRASG12D), 4.26 nM; in data set [4] (Homo sapiens, SW480, 3 h) it was 7.8 nM. The IC50 in [5] worked out at 45 nM. Moreover, the “inhibitory effects on human ovarian cancer RKN mouse xenograft tumors” value in [7] (BID, 28 days) is given as “significant inhibitory effects”. In data set [7] (RKN xenograft, BID × 28, day 28), the “Tumor volume inhibition rate (TGI)” value was determined as 109%. Besides, the AUC in [8] is 5290 ng·h/mL; in data set [6] it was 30872 ng·h/mL. In addition, the Cmax came out at 866 ng/mL in data set [8] and 5218 ng/mL in [6].
